Measurements published in patent US9266903B2, “Polymorphs of 2-(4-(2-(1-isopropyl-3-methyl-1H-1,2,4-triazole-5-yl)-5,6-dihydrobenzo[F]imidazo [1,2-D][1,4]oxazepin-9-yl)-1H-pyrazol-1-yl)-2-methylpropanamide, methods of production, and pharmaceutical uses thereof” (Genentech, Inc., priority 2013, dated 2016).
≈ marks a conversion by molar mass, not a printed value.

Tests used:
[1] = Stability of solvate/hydrate forms in the absence of solvent or at low humidity; format: physicochemical
[2] = Slurry in water (conversion to hydrate); format: physicochemical
[3] = Dynamic vapor sorption (DVS); format: physicochemical; conditions: for weight gain in DVS / dynamic moisture sorption experiment: at 95% RH
Experimental: Automated vapor sorption data were collected on a TA Instruments Q5000SA vapor sorption analyzer. NaCl and PVP were used as calibration standards. Samples were not dried prior to analysis. Adsorption and desorption data were collected at 25° C. over a range from 5 to 95% RH at 10% RH increments under a nitrogen purge. Samples were held at the corresponding RH for 1 hour prior to moving to the next RH range. Data were not corrected for the initial moisture content of the samples.

[4] = Solid-state physical form stability (accelerated 40° C./75% RH, high humidity, API stability studies); format: physicochemical
[5] = Slurry interconversion experiments in pure isoamyl alcohol; format: physicochemical; conditions: Form B versus Form C in pure isoamyl alcohol
Experimental: Form C was derived only from isoamyl alcohol and was initially formed at 5° C. It is crystalline by XRPD (FIG. 13) and PLM. […] This weight loss was divided into two broad steps: a 5.2% weight loss was observed from ambient to 105° C. and an additional 9.8% weight loss was observed from 105-125° C. (bp of isoamyl alcohol: 130° C.). The theoretical weight loss for a mono-solvate is 16.1% and 8.7% for a hemi-solvate. The crystal structure of Form C was solved. Form C is the mono-isoamyl alcoholate. […] The solvate, Form C, was favored at temperatures of 15° C. or below.

[6] = Isothermal TGA dehydration; format: physicochemical
Experimental: Weight change as a function of temperature was determined by TGA. […] 0.1-2 milligrams of the sample were placed in a DSC pan located on the sample holder. The sample holder was heated in the TGA from 25 to 300° C. at a heating rate of 10° C. min^−1. Dry N2 gas was used for purging. Isothermal experiments were conducted by heating the sample at 10° C./min to the desired temperature and then holding the sample at that temperature for at least 200 minutes.

[7] = Solubility assessment as a function of pH and in different buffers and formulation vehicles; format: physicochemical
Excerpt: The solubility behavior of GDC-0032 API is summarized as a Function of pH and in Different Buffers and Formulation Vehicles

[8] = Solubility in solvents/solvent mixtures at two temperatures (visual dissolution, HPLC for suspensions); format: physicochemical
Experimental: The solubility of GDC-0032 was determined in various solvents/solvent mixtures at two different temperatures: Ethanol absolute, Methanol, Isopropanol, Acetone, Ethyl Acetate, Isopropyl acetate, Tetrahydrofuran, 2-Butanone, Methanol/Water (50/50), 2,2,2-Trifluoroethanol (TFE), 2-Butanone, TFE/Ethyl acetate (50/50), TFE/Acetone (50/50), TFE/Water (50/50), Acetonitrile, Acetonitrile/water (50/50), Acetone/water (50/50), Tert-butyl methyl ether, n-Heptane, Ethanol/Ethyl acetate (50/50), Ethanol/Acetone (50/50), Methanol/water (90/10), Ethanol/Acetonitrile (50/50).
For each experiment, approximately 5-10 mg of material was weighed in 40 mL vials. […] In each vial, the solvent was added to the solid in steps of 50 μL until dissolution or until a minimum concentration of 0.2 mg/mL was reached. Dissolution was assessed visually at two temperatures, room temperature (RT) and a higher temperature (Tmax=50 or 70° C., selected such that the boiling point of the solvent was higher than Tmax). Solubility was measured by HPLC for suspensions.

[9] = Solubility of GDC-0032 in methanol at high temperature; format: physicochemical; conditions: approximately 15 mg in 500 mL methanol, 24 hours equilibration
Experimental: Solubility of GDC-0032 in methanol at high temperature: Solubility of GDC-0032 in methanol at 45° C. and 55° C. was measured. Two slurries were prepared with approximately 15 mg of starting material and 500 mL of methanol. The slurries were subsequently placed in two ovens, at 45° C. and 55° C. each. After 24 hours of equilibration the two slurries were visually checked. In both cases the dissolution was not complete. The solids were separated from the mother liquor and were harvested both wet and dried for XRPD and digital imaging. The mother liquor was evaporated and the solids were also analyzed by XRPD and digital imaging.

[10] = pKa and log P by potentiometric titration; format: physicochemical
Experimental: GDC-0032 API is a white to off-white solid. It is crystalline as confirmed by the sharp peaks of its XRPD pattern and has a melting point of 258° C. Several physical forms of GDC-0032 free base, including an anhydrous form (Form B), several hydrates, and several solvates, have been identified to date. Form B has a melting point range of 256° C. to 258° C. Form B has been produced consistently in the API process to date. […] The reproducibility and stability of the crystalline form will be monitored during API synthesis and stability. GDC-0032 is non-hygroscopic, with less than 0.2% weight gain at 95% RH in the dynamic moisture sorption experiment.

PI3K = conditions: cited from earlier work

C1COCCO1.Cc1nc(-c2cn3c(n2)-c2ccc(-c4cnn(C(C)(C)C(N)=O)c4)cc2OCC3)n(C(C)C)n1.Cc1nc(-c2cn3c(n2)-c2ccc(-c4cnn(C(C)(C)C(N)=O)c4)cc2OCC3)n(C(C)C)n1 [Form AA]
stability in the absence of the solvate solvent [1]: not stable

C1CCOC1.Cc1nc(-c2cn3c(n2)-c2ccc(-c4cnn(C(C)(C)C(N)=O)c4)cc2OCC3)n(C(C)C)n1 [Form AC]
stability in the absence of the solvate solvent [1]: not stable

CO.Cc1nc(-c2cn3c(n2)-c2ccc(-c4cnn(C(C)(C)C(N)=O)c4)cc2OCC3)n(C(C)C)n1 [Form A]
form obtained on slurrying in the presence of water ([2]; 50° C.): Form D
form obtained from water slurry experiment ([2]; room temperature, after drying): mixture of Form A and Form D

Cc1nc(-c2cn3c(n2)-c2ccc(-c4cnn(C(C)(C)C(N)=O)c4)cc2OCC3)n(C(C)C)n1 [Form B]
physical form after the DVS experiment [3]: still Form B
weight gain in DVS / dynamic moisture sorption experiment [3]: less than 0.3%
physical form after accelerated stability tests ([4]; 40° C. and 75% RH): unchanged
form change when exposed to high humidity ([4]; high humidity for at least 6 months): does not exhibit any form change
conversion on slurrying in water ([2]; water, with and without Tween 80): no conversion to the hydrate
temperature at which the form is preferred/favored in slurry interconversion [5]: ≥ 20 °C

CC(C)CCO.Cc1nc(-c2cn3c(n2)-c2ccc(-c4cnn(C(C)(C)C(N)=O)c4)cc2OCC3)n(C(C)C)n1 [Form C]
temperature at which the form is preferred/favored in slurry interconversion [5]: ≤ 15 °C

Cc1nc(-c2cn3c(n2)-c2ccc(-c4cnn(C(C)(C)C(N)=O)c4)cc2OCC3)n(C(C)C)n1.O [Form D]
time to complete dehydration on the TGA ([6]; isothermal at 60° C.): ≤ 40 min
time to complete dehydration on the TGA ([6]; isothermal at 100° C.): ≤ 15 min

Cc1nc(-c2cn3c(n2)-c2ccc(-c4cnn(C(C)(C)C(N)=O)c4)cc2OCC3)n(C(C)C)n1.O [Form X]
humidity at which Form X reversibly converts to Form Y ([1]; at 20° C.): 10-20 % RH

CC(C)C(=O)C(C)C.Cc1nc(-c2cn3c(n2)-c2ccc(-c4cnn(C(C)(C)C(N)=O)c4)cc2OCC3)n(C(C)C)n1 [Form Z]
stability in the absence of the solvate solvent [1]: converts to Form B

Cc1nc(-c2cn3c(n2)-c2ccc(-c4cnn(C(C)(C)C(N)=O)c4)cc2OCC3)n(C(C)C)n1 [GDC-0032, 2-(4-(2-(1-isopropyl-3-methyl-1H-1,2,4-triazol-5-yl)-5,6-dihydrobenzo[f]imidazo[1,2-d][1,4]oxazepin-9-yl)-1H-pyrazol-1-yl)-2-methylpropanamide]
solubility ([7]; FaSSIF, pH 6.8, at 37° C.): 22 µg/mL (≈ 47.8 µM)
solubility ([7]; FeSSIF, pH 5.0, at 37° C.): 270 µg/mL (≈ 586 µM)
solubility ([7]; aqueous buffer, 50 mM phosphate buffer, pH 6.5, at room temperature): 0.72 µg/mL (≈ 1.56 µM)
solubility ([7]; simulated gastric fluid, 0.1N HCl, pH 1.1, at room temperature): 54 µg/mL (≈ 117 µM)
solubility ([7]; water): 1.5 µg/mL (≈ 3.26 µM)
solubility in 2,2,2-trifluoroethanol (TFE) [8]: high solubility
solubility in various solvents/solvent mixtures ([8]; 23 listed solvents/mixtures, RT and Tmax 50 or 70° C.): soluble in all except for Ethyl Acetate, Isopropyl acetate, Tetrahydrofuran, Tert-butyl methyl ether, and n-Heptane
dissolution in methanol ([9]; 45° C.): not complete
dissolution in methanol ([9]; 55° C.): not complete
weight gain in DVS / dynamic moisture sorption experiment [3]: less than 0.2%
logP [10]: 2.5
pKa ([10]; weak base): 3.19
physical form conversion in ongoing stability studies for the API [4]: no physical form conversion
PI3K activity (PI3K): potent
